Reference: patent publication US11339160B2, “Imidazole and triazole containing bicyclic compounds as JAK inhibitors” (THERAVANCE BIOPHARMA R&D IP, LLC, priority 2019, dated 2022)

Tests used:
JAK3 = JAK3 (Homo sapiens (Human), UniProt P52333); assay: Biochemical JAK3 kinase assay (LanthaScreen); conditions: for JAK3 (pKi)-JAK1 (pKi): selectivity, difference of pKi values
Method: (§1) Assay 1: Biochemical JAK and Tyk2 Kinase Assays
(§2) A panel of four LanthaScreen JAK biochemical assays (JAK1, 2, 3 and Tyk2) were carried in a common kinase reaction buffer (50 mM HEPES, pH 7.5, 0.01% Brij-35, 10 mM MgCl2, and 1 mM EGTA). Recombinant GST-tagged JAK enzymes and a GFP-tagged STAT1 peptide substrate were obtained from Life Technologies.
Serially or discretely diluted compounds were pre-incubated with each of the four JAK enzymes and the substrate in white 384-well microplates (Corning) at ambient temperature for 1 h. ATP was subsequently added to initiate the kinase reactions in 10 μL total volume, with 1% DMSO. […] Kinase reactions were allowed to proceed for 1 hour at ambient temperature before a 10 μL preparation of EDTA (10 mM final concentration) and Tb-anti-pSTAT1 (pTyr701) antibody (Life Technologies, 2 nM final concentration) in TR-FRET dilution buffer (Life Technologies) was added. The plates were allowed to incubate at ambient temperature for 1 h before being read on the EnVision reader (Perkin Elmer). Emission ratio signals (520 nm/495 nm) were recorded and utilized to calculate the percent inhibition values based on DMSO and background controls.
(§3) For dose-response analysis, percent inhibition data were plotted vs. compound concentrations, and IC50 values were determined from a 4-parameter robust fit model with the Prism software (GraphPad Software). Results were expressed as pIC50 (negative logarithm of IC50) and subsequently converted to pKi (negative logarithm of dissociation constant, Ki) using the Cheng-Prusoff equation.

[1] = test system: IL-2 stimulated STAT5 phosphorylation in CD4+ T cells isolated from murine splenocytes; assay: Inhibition of IL-2 stimulated pSTAT5 in CD4+ T cells isolated from murine splenocytes; assay type: cell-based; conditions: Mus musculus, IL-2 7 ng/ml, read-out: pIC50, inhibition of IL-2 stimulated pSTAT5 (converted)
Method: Assay 3: Inhibition of IL-2 Stimulated pSTAT5 in CD4+ T Cells Isolated from Murine Splenocytes
The potency of test compounds for inhibition of interleukin-2 (IL-2) stimulated STAT5 phosphorylation was measured in the CD4+ T cells isolated from murine splenocytes using AlphaLisa. Because IL-2 signals through JAK3, this assay provides a measure of JAK3 cellular potency in mouse.
Phosphorylated STAT5 was measured via the AlphaLISA SureFire Ultra pSTAT5 (Tyr694/699) kit (PerkinElmer).
CD4+ T cells were isolated from murine splenocytes via negative selection on a magnetic column (Miltnyi Biotec) and re-suspended in assay media (phenol red-free DMEM (Life Technologies) supplemented with 10% FBS (ATCC)). Cells were seeded at 50,000 cells/well in assay media (2 μL/well). Compounds were serially diluted in DMSO and diluted to 2× final concentration in assay media. Compound was added (4 μl/well) and the cells incubated at 37° C., 5% CO2 for 1 hour, followed by the addition of IL-2 (R&D Systems; final concentration 7 ng/ml) in pre-warmed assay media (2 μL) for 30 minutes. After cytokine stimulation, cells were lysed with 2 μl of 5× AlphaLisa Lysis Buffer (PerkinElmer). The lysate was shaken at 900 rpm for 10 minutes at room temperature (RT). Phosphorylated STAT5 was measured via the pSTAT5 AlphaLisa kit (PerkinElmer). Freshly prepared acceptor bead mixture was dispensed onto lysate (5 ul) under green filtered <100 lux light. Plates were shaken at 900 rpm for 2 mins, briefly spun down, and incubated for 2 hrs at RT in the dark. Donor beads were dispensed (5 μl) under green filtered <100 lux light. Plates were shaken at 900 rpm for 2 mins, briefly spun down, and incubated overnight at RT in the dark. Luminescence was measured with excitation at 689 nm and emission at 570 nm using an EnVision plate reader (PerkinElmer) under green filtered <100 lux light.
To determine the inhibitory potency of test compounds in response to IL-2, the average emission intensity of beads bound to pSTAT5 was measured in primary CD4+ T cells isolated from murine splenocytes. IC50 values were determined from analysis of the inhibition curves of signal intensity vs compound concentration. Data are expressed as pIC50 (negative decadic logarithm IC50) values (mean standard deviation).

JAK1 = JAK1 (Homo sapiens (Human), UniProt P23458); assay: Biochemical JAK1 kinase assay (LanthaScreen); conditions: 1 h pre-incubation, ATP at Km 25 μM; pKi from pIC50 by Cheng-Prusoff
Method: as §1, §2
Serially or discretely diluted compounds were pre-incubated with each of the four JAK enzymes and the substrate in white 384-well microplates (Corning) at ambient temperature for 1 h. ATP was subsequently added to initiate the kinase reactions in 10 μL total volume, with 1% DMSO. […] The plates were allowed to incubate at ambient temperature for 1 h before being read on the EnVision reader (Perkin Elmer). Emission ratio signals (520 nm/495 nm) were recorded and utilized to calculate the percent inhibition values based on DMSO and background controls.
as §3

Caco-2 cell monolayers = assay: Caco-2 permeation assay; conditions: 5 μM, A to B, + Verapamil 25 μM; unit taken from the thresholds in the same block
Method: The Caco-2 permeation assay was performed to model the ability of test compounds to pass through the intestine and get into the blood stream after oral administration. The rate at which test compounds in solution permeate a cell monolayer designed to mimic the tight junction of human small intestinal monolayers was determined.
CacoReady 24-well transwell plates were obtained from ADMEcell (Alameda, Calif.). The compounds were evaluated at a concentration of 5 μM from 10 mM DMSO stock solutions in duplicate (n=2). The passive permeability of the compounds tested was evaluated using Caco-2 cell monolayers along with Verapamil (25 μM) to inhibit P-gp transport proteins in the apical to basolateral (A-B) direction. The experiment was conducted in a 37° C., 5% CO2 incubator. Caco-2 culture media consisted of standard filtered DMEM, FCS 10%, L-Glutamine 1% and PenStrep 1%. Basal assay plate was prepared by adding 750 μL of transport buffer to A-B wells. A CacoReady™ plate was prepared by removing the Caco-2 media from the apical wells and replacing with fresh transport media (200 μL repeated for a total of 3 washes). Blank media (200 μL) was then replaced with diluted compound for A-B wells. […] The permeation coefficient (Kp, mean A to B+Verapamil Papparent) in cm/sec was calculated as dQ (flux)/(dt×Area×concentration). […]

[2] = Colon and plasma mouse pharmacokinetics; assay type: in vivo; conditions: male Balb/c mice, 10 mg/kg PO, 0.5, 2 and 6 h
Method: Assay 6: Colon and Plasma Mouse Pharmacokinetics
6 male Balb/c mice were administered 10 mg/kg of compound in 1% HPMC+0.1% Tween-80 by PO administration. At 0.5, 2 and 6 hours after dose administration, animals were anesthetized, and terminal blood samples were collected by cardiac puncture, followed by collection of colon contents and colon tissue.
Blood samples were collected into K2EDTA and stored on wet ice until processed to plasma by centrifugation (12,000 rpm at 4° C.). Plasma samples were transferred to cluster tubes and placed on dry ice prior to freezer storage. The colon contents from each animal were collected at each terminal blood collection time point. The colon tissues were flushed with saline and patted dry. The colon and colon content tissues were homogenized using sterile water containing 0.1% formic acid 9:1 (water:tissue, v/w). […] All samples were analyzed using LC/MS/MS against analytical standards.
The composite pharmacokinetic parameters of the compounds were determined by non-compartmental analysis using Phoenix WinNonlin Version 6 (Certara, St. Louis, Mo.) and using mean values from 2 animals/time point. For plasma concentrations below the quantification limit (BQL), the lowest concentration measurable or the BLOQ (below limit of quantification) was used.
A colon to plasma ratio was determined as the ratio of the colon AUC to the plasma AUC.

Chain of JAK3 (P52333 whole entry): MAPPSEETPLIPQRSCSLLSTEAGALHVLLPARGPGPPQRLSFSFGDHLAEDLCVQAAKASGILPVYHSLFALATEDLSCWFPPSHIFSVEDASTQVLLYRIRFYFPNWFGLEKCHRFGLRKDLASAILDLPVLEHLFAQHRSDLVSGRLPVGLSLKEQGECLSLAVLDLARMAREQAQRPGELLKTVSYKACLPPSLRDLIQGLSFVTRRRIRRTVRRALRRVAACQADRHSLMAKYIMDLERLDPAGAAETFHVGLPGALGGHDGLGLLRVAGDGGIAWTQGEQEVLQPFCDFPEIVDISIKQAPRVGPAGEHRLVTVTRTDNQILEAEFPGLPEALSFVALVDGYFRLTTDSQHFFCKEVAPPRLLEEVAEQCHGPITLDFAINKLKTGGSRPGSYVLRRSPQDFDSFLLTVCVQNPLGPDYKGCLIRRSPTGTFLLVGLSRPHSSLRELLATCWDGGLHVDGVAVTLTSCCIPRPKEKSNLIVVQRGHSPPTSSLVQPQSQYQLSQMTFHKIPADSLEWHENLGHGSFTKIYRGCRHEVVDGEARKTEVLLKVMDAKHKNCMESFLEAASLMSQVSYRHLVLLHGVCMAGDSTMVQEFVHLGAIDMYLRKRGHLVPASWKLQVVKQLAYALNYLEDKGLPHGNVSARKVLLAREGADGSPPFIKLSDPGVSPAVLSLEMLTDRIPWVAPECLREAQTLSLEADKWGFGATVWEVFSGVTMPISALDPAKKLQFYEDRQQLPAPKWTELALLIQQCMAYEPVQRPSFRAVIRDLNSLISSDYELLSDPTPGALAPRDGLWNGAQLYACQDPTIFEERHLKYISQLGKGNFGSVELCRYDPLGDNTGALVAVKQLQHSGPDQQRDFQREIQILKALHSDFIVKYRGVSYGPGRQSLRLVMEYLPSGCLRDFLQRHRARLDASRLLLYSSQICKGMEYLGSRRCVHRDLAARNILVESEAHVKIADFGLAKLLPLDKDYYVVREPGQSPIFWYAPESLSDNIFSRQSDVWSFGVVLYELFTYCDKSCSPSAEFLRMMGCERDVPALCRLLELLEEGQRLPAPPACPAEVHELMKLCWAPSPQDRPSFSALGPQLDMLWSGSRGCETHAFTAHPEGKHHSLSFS
Chain of JAK1 (P23458 whole entry): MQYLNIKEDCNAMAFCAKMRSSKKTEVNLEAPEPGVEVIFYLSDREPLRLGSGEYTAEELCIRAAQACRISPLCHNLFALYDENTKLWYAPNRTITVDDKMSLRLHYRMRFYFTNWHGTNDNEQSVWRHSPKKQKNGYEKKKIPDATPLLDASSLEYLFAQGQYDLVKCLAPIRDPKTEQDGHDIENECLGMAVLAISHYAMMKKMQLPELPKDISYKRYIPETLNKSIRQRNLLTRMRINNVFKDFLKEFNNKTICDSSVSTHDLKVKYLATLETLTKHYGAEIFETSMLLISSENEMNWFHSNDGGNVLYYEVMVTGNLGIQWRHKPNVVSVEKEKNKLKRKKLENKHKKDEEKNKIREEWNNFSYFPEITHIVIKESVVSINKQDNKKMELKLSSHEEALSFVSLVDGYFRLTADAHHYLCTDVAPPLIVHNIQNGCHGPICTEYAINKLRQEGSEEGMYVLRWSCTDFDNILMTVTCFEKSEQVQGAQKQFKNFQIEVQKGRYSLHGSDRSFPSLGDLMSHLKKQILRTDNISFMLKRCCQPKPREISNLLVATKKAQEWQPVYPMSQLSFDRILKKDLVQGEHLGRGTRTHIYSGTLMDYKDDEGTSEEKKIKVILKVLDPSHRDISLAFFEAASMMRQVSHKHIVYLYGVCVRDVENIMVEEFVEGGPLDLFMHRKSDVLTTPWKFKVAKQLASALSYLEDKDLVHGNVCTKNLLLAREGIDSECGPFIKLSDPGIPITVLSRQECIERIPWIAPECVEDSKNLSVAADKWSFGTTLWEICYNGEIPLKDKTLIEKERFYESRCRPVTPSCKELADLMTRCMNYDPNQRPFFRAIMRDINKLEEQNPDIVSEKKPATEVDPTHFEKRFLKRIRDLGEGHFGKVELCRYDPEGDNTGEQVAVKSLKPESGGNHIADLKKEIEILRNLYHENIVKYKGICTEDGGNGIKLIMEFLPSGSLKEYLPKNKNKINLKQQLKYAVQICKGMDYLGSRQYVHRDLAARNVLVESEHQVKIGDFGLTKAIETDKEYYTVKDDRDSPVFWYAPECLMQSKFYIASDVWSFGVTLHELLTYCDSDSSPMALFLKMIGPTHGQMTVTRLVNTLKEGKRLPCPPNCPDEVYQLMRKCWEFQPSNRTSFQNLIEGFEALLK

| Structure (SMILES) | JAK3 (pKi)-JAK1 (pKi) (JAK3) | IC50 [1] | further results |
| --- | --- | --- | --- |
| C=CC(=O)N1CC(COc2cc(-c3cc(Cl)c(O)c(OC)c3)cn3cncc23)C1 [Example 9, 1-(3-(((6-(3-chloro-4-hydroxy-5-methoxyphenyl)imidazo[1,5-a]pyridin-8-yl)oxy)methyl)azetidin-1-yl)prop-2-en-1-one] | A (a value of 3 or above) | < 1 µM | – |
| C=CC(=O)N1CC(COc2cc(-c3ccc(O)cc3)cn3cncc23)C1 [Example 11, 1-(3-(((6-(4-hydroxyphenyl)imidazo[1,5-a]pyridin-8-yl)oxy)methyl)azetidin-1-yl)prop-2-en-1-one] | A (a value of 3 or above) | < 1 µM | – |
| C=CC(=O)N1CC(COc2cc(-c3ccc(O)c(Cl)c3)cn3cncc23)C1 [Example 12, 1-(3-(((6-(3-chloro-4-hydroxyphenyl)imidazo[1,5-a]pyridin-8-yl)oxy)methyl)azetidin-1-yl)prop-2-en-1-one] | A (a value of 3 or above) | < 1 µM | – |
| C=CC(=O)N1CC(COc2cc(-c3cc(F)c(O)cc3CC)cn3cncc23)C1 [Example 13, 1-(3-(((6-(2-ethyl-5-fluoro-4-hydroxyphenyl)imidazo[1,5-a]pyridin-8-yl)oxy)methyl)azetidin-1-yl)prop-2-en-1-one] | A (a value of 3 or above) | < 1 µM | – |
| C=CC(=O)N1CC[C@@H](Oc2cc(-c3ccc(O)cc3)cn3cncc23)C[C@H]1C [Example 15, 1-((2R,4R)-4-((6-(4-hydroxyphenyl)imidazo[1,5-a]pyridin-8-yl)oxy)-2-methylpiperidin-1-yl)prop-2-en-1-one] | A (a value of 3 or above) | < 1 µM | – |
| C=CC(=O)N1CCC(N(C)c2cc(-c3ccc(O)cc3)cn3cncc23)CC1 [Example 17] | B (a value of 2.3 to 3) | – | Ki (JAK3; 1 h pre-incubation, ATP at Km 1.6 μM, pKi from pIC50 by Cheng-Prusoff, read-out: JAK 3 (pKi) (converted)): 0.001 to 0.01 µM; JAK 1 (pKi) (JAK1): E (a pKi value of 7 or below (Ki of 100 nM or above)) |
| C=CC(=O)N1CC(COc2cc(-c3ccc(O)c(F)c3)cn3cncc23)C1 [Example 20] | A (a value of 3 or above) | < 1 µM | – |
| CCc1cc(O)c(F)cc1-c1cc(OCC2CN(C(=O)/C=C/CN(C)C)C2)c2cncn2c1 [Example 24] | A (a value of 3 or above) | < 1 µM | – |
| C=CC(=O)N1CC(C(C)(C)Oc2cc(-c3ccc(O)cc3)cn3cncc23)C1 [Example 28] | A (a value of 3 or above) | < 1 µM | – |
| C=CC(=O)N1CC(COc2cc(-c3cc(F)c(O)c(Cl)c3)cn3cncc23)C1 [Example 31] | A (a value of 3 or above) | < 1 µM | – |
| C=CC(=O)N1CC(COc2cc(-c3ccc(O)c(C)c3)cn3cncc23)C1 [Example 34] | A (a value of 3 or above) | < 1 µM | – |
| C=CC(=O)N1C[C@H](Nc2ncnc3[nH]ccc23)CC[C@@H]1C [PF-06651600, 2-propen-1-one, 1-[(2S,5R)-2-methyl-5-(7H-pyrrolo[2,3-d]pyrimidin-4-ylamino)-1-piperidinyl]] | – | – | Kp value (Caco-2 cell monolayers): 25 ×10⁻⁶ cm/s; colon to plasma ratio (colon AUC to plasma AUC) [2]: 2.8 |
